Data published in patent US6150390A, “3-amino-1,2-benzoisoxazole derivatives, process for preparation, and use thereof” (Dong Wha Pharm. Ind. Co., Ltd., priority 1997, dated 2000).
Where two headings read alike, the source gives them in different places.

Assays:
LTB-4 receptor = target: T1, LTB-4 receptor (Homo sapiens, UniProt Q15722); assay: Antagonizing action for LTB-4 receptor ([3H]-LTB-4 binding to human neutrophils); settings: for inhibition at 0.01 µM: 10 nM, read-out: Degree of inhibition (%) 10 nM; for inhibition at 0.01 µM / inhibition at 0.1 µM / inhibition at 1 µM: inhibition of selective [3H]-LTB-4 binding, human neutrophils; for inhibition at 0.1 µM: 100 nM, read-out: Degree of inhibition (%) 100 nM; for inhibition at 1 µM: read-out: Degree of inhibition (%) 1 μM
T1 construct: Final neutrophil was dispersed to 3×10^7 cell/ml in HBSS media and used for measuring the antagonizing action for LTB-4 receptor; endogenous in cells; host or cells: neutrophils from human whole blood
Method: Neutrophil was separated from whole blood of human by precipitation using "Dextran T-500", and by the inclined centrifugation with Ficoll/Paque (Pharmacia Co.) Boyum, Scan. J. Clin. Lab. Invest., 21 suppl.
Mixed erythrocyte was removed by hemolysis of hypotonic solution. Final neutrophil was dispersed to 3×10^7 cell/ml in HBSS media and used for measuring the antagonizing action for LTB-4 receptor.
0.5 nM of [^3 H]-LTB-4 (200 Ci/mmol), test sample to measure the antagonizing action for LTB-4 receptor, and cell dispersed in HBSS media was added to 12 mm×75 mm of polyethylene tube (final volume: 200 μl), and left in ice bath for 45 minutes.
To separate [^3 H]-LTB-4 bound to neutrophil and isolated [^3 H]-LTB-4 not bound to neutrophil, the above mixture was filtered through GF/C filter (made by Wattman Co.). Filter paper was washed with pH 7.4 of cold Tris-buffer solution (5 ml) for 3 times, dried, and measured radioactivity. The selective binding of LTB-4 to neutrophil can be detected by the difference between radioactivities without antagonist in case that LTB-4 was totally bound to neutrophil, and that LTB-4 was bound to neutrophil in addition of radioisotope-unlabeled LTB-4 1000 times.

[1] = tested on: cells of calvariae of fetal rat (bonelike nodule forming); assay: Bonelike nodule forming in cultured fetal rat calvaria cells; assay type: cell-based; settings: for Area of nodule (mm^2): control 0.12 ± 0.026; for Number of nodule (No.): control 10.04 ± 1.23
Method: Approximately 30 of calvariae of fetal rat, removed all the tissue, was dissolved in 5 ml sterilized colagenase (0.1%) and trypsin solution (0.05%) at 37° C. 20 Minutes after dissolving, the released cells were collected, and hereto was added fetal serum to the same amount. This procedure was carried out for 3-6 times in every 20 minutes to collect the isolated cells. Collected cells were separated by centrifugation ([…]) for 5 minutes and it was suspended in α-MEM media, containing 10% (v/v) fetal bovine serum. Collected cells were cultivated in petri dish for 2-3 days, then separated with trypsin, and it were placed in 96 wells to 2.0×10^3 cells/100 μl in each well.
After cultivating the cells for 2-3 days, the media were changed to 5% fetal calf serum, 150 μg/ml ascorbic acid and 5 mM β-glycerophosphate, plus or minus sample (HS-1141). The control was in wells without the sample, and this time was arbitrarily set as […]. Formed nodule was analyzed with image analyzer (Biorad Co., U.S.A.); camcorder (SONY Co.); and microscope (Leitz Co.).

[2] = reported in the literature; cited from earlier work

T1 sequence (Q15722 whole entry): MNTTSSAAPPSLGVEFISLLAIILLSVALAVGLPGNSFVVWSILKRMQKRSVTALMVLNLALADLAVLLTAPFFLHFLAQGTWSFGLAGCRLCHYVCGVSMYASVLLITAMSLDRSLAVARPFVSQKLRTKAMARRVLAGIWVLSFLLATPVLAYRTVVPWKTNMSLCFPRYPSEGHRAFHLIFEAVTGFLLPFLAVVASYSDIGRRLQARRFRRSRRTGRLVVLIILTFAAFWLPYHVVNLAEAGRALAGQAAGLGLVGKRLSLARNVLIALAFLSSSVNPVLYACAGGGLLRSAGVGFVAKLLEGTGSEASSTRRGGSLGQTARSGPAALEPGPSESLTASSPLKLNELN

SMILES	inhibition at 0.01 µM (LTB-4 receptor)	inhibition at 0.1 µM (LTB-4 receptor)	inhibition at 1 µM (LTB-4 receptor)	effect of antagonizing action for LTB-4 receptor compared with CGS-25019C (LTB-4 receptor; compared with known compound CGS-25019C)	IC50 (LTB-4 receptor; concentration of 50% of antagonizing in binding to receptor, read-out: IC50)	Area of nodule (mm^2) ([1]; 10-11 M)	Number of nodule (No.) ([1]; 10-11 M)	Area of nodule (mm^2) ([1]; 10^-8 M)	Number of nodule (No.) ([1]; 10^-8 M)	Area of nodule (mm^2) ([1]; 10^-9 M)	Number of nodule (No.) ([1]; 10^-9 M)	Area of nodule (mm^2) ([1]; 10^-10 M)	Number of nodule (No.) ([1]; 10^-10 M)	increase of remodeling of bonelike nodule ([1]; from Table II, versus control)	IC50 (LTB-4 receptor)	toxicity to stimulate stomach and intestine [2]
COc1cc(C(=O)N(C(C)C)C(C)C)ccc1OCCCCOc1ccc2c(N)noc2c1 [HS-1141, N,N-diisopropyl-4-[4-(3-aminobenzo[d]isoxazol-6-yloxy)butoxy]-3-methoxybenzamide]	64%	95%	99%	better	7 nM	0.342 ± 0.065 mm^2	25.67 ± 3.54 No.	0.273 ± 0.019 mm^2	22.80 ± 4.71 No.	0.379 ± 0.068 mm^2	24.00 ± 4.04 No.	0.320 ± 0.082 mm^2	19.40 ± 1.29 No.	> 2 times	–	–
COc1cc(C(=O)N(C(C)C)C(C)C)ccc1OCCCCCOc1ccc2c(N)noc2c1 [HS-1132, N,N-diisopropyl-4-[5-(3-aminobenzo[d]isoxazol-6-yloxy)pentoxy]-3-methoxybenzamide]	< 10%	10%	90%	–	–	–	–	–	–	–	–	–	–	–	–	–
COc1cc(C(=O)N(C(C)C)C(C)C)ccc1OCCCOc1ccc2c(N)noc2c1 [HS-1151, N,N-diisopropyl-4-[3-(3-aminobenzo[d]isoxazol-6-yloxy)propoxy]-3-methoxybenzamide]	< 10%	37%	92%	–	–	–	–	–	–	–	–	–	–	–	–	–
COc1cc(C(=O)N(C(C)C)C(C)C)ccc1OCCCCCOc1ccc(C(=N)N)cc1 [CGS-25019C, reference compound]	11%	68%	97%	–	–	–	–	–	–	–	–	–	–	–	80 nM	toxicity to stimulate stomach and intestine
